Laboratory results as given in patent US8119630B2 (Arrow Therapeutics Limited, priority 2002, dated 2012).

Key:
RSV [1] = assay: XTT assay, RSV-infected Hep-2 cells; assay type: cell-based, Respiratory Syncytial Virus (RSV); conditions: Table 2, Examples 75 to 82 and 125 to 184, Hep-2 cells infected with RSV, 6 days at 37° C.
Protocol: Examples 75 to 82 and 125 to 184 were tested according to the protocol described below.
(§1) The inner 60 wells of 96 well tissue culture plates were seeded with Hep-2 cells at 4×10^4 cells/well for compound activity and toxicity studies in 100 μl of medium and incubated at 37° C. overnight or until nearing confluency.
(§2) Cells were infected with 25 μl RSV previously titrated to give 80% cell kill. To each well 25 μM of test compound were added. The final DMSO concentration was 0.5%. Some 200 μl of sterile distilled water were added to the outer wells of the plate and incubated at 37° C. for 6 days. Some 0.25 μl/ml PMS were added to stock […] solution, final conc. 25 μM PMS. Then 25 μl warmed XTT/PMS solution were added to each well and incubated for 1 hour at 37° C.
Maximum OD450nm reading (uninfected, untreated control cells) corresponded to 100% inhibition. Minimum OD450nm readings (infected control cells) corresponded to 0% inhibition. Log 10 concentration was plotted against OD450nm and IC50 values were calculated from either reading 50% value from graph or using regression analysis.

Hep-2 cells = assay: Toxicity studies (XTT), Hep-2 cells; assay type: cell-based; set-up: TC50 (6d): unit not given beside the values; conditions: for TC50 (6d): Table 2, Examples 75 to 82 and 125 to 184, 6d, in µM
Protocol: as §1
as §2, with “Some 200 μl of sterile distilled water were added to the outer wells of the plate and incubated at 37° C. for 6 days.” left out

RSV [2] = assay: XTT assay, RSV-infected Vero cells; assay type: cell-based, Respiratory Syncytial Virus (RSV); conditions: Vero cells infected with RSV, m.o.i.≈0.2, 6 days at 33° C.
Summary of the method: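 Vero cells infected with RSV at m.o.i.≈0.2 in presence of serially ½-log diluted compound, incubated 6 days at 33 °C. Viability read by XTT/PMS (5 h, 37 °C) at OD450; uninfected untreated cells = 100%, infected controls = 0% inhibition. IC50 from graph or regression; parallel uninfected plates for toxicity.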

Vero cells = assay: Simultaneous toxicity investigation (XTT), Vero cells; assay type: cell-based; set-up: unit not given here; conditions: for TC50 (2d): Table 2, Examples 83 to 124, 2d; for TC50 (6d): Table 2, Examples 83 to 124, 6d
Protocol: The inner 60 wells of 96 well tissue culture plates were seeded with Vero cells at 3×10^4 cells/well (1×10^4 cells/well for toxicity studies) in 100 or 150 μl of medium and incubated at 37° C. overnight or until nearing confluency. For primary screen, 25 μl compounds were added directly to 100 μl medium in single wells to duplicate plates. A third plate was prepared for simultaneous toxicity investigation.
For follow-up investigation, 70 μl of compound in duplicate wells were added directly to culture medium at 3.2× final concentration and ½ log serially diluted down columns of plate. A duplicate plate was prepared for simultaneous toxicity investigation.
Cells were infected with 25 μl RSV to give m.o.i.≈0.2. […] Some 0.25 μl/ml PMS were added to stock XTT solution, final conc. […]. Then 25 μl warmed XTT/PMS solution were added to each well and incubated for 5 hours at 37° C. Plates were shaken (DynaTech Vari-Shaker) vigorously for 10 mins and allowed to cool for 15 mins before sealing. Absorbance at 450 nm was measured and data analysed using Microsoft Excel software.

[3] = human respiratory syncytial virus, 144 h
[4] = human respiratory syncytial virus, Vero, 144 h, read-out: XTT IC50 (uM), Table 2, Examples 83 to 124
[5] = Table 2, Examples 83 to 124, read-out: XTT IC50

Compound	TC50 (6d) (Hep-2 cells)	IC50 (RSV [2]; [4])	TC50 (2d) (Vero cells)	TC50 (6d) (Vero cells)	other results
1-(2-Oxo-5-phenyl-2,3-dihydro-1H-benzo[e][1,4]diazepin-3-yl)-3-m-tolyl-urea [Example 141]	>50	–	–	–	IC50 (RSV [1]): 4.3 µM
5-Acetyl-2-ethoxy-N-(2-oxo-5-phenyl-2,3-dihydro-1H-benzo[e][1,4]diazepin-3-yl)-benzamide [Example 76a]	64	–	–	–	IC50 (RSV [1]): 3.5 µM
5-Methyl-furan-2-carboxylic acid (2-oxo-5-phenyl-2,3-dihydro-1H-benzo[e][1,4]diazepin-3-yl)-amide [Example 161]	60	–	–	–	IC50 (RSV [1]): 2 µM; TC50 (2d) (Hep-2 cells; Table 2, Examples 75 to 82 and 125 to 184, 2d): 100 µM
COc1cc(S(C)(=O)=O)ccc1C(=O)NC1N=C(c2ccccc2)c2ccccc2NC1=O (stereo not drawn) [Example 75a, 4-Methanesulfonyl-2-methoxy-N-(2-oxo-5-phenyl-2,3-dihydro-1H-benzo[e][1,4]diazepin-3-yl)-benzamide]	–	–	–	–	IC50 (RSV [1]; [3]): 2.4 µM
COc1cc(S(C)(=O)=O)ccc1C(=O)N[C@H]1N=C(c2ccccc2)c2ccccc2NC1=O [Example 75b, (S)-4-Methanesulfonyl-2-methoxy-N-(2-oxo-5-phenyl-2,3-dihydro-1H-benzo[e][1,4]diazepin-3-yl)-benzamide]	>50	–	–	–	IC50 (RSV [1]; [3]): 0.6 µM
CCOc1ccc(C(C)=O)cc1C(=O)N[C@H]1N=C(c2ccccc2)c2ccccc2NC1=O [Example 76b, (S)-5-Acetyl-2-ethoxy-N-(2-oxo-5-phenyl-2,3-dihydro-1H-benzo[e][1,4]diazepin-3-yl)-benzamide]	>50	–	–	–	IC50 (RSV [1]; [3]): 1.2 µM
O=C(NC1N=C(c2ccccc2)c2ccccc2NC1=O)c1cc(F)cc2c1OCOC2 (stereo not drawn) [Example 77a, 6-Fluoro-4H-benzo[1,3]dioxine-8-carboxylic acid (2-oxo-5-phenyl-2,3-dihydro-1H-benzo[e][1,4]diazepin-3-yl)-benzamide]	>50	–	–	–	IC50 (RSV [1]): 4.6 µM
O=C(N[C@H]1N=C(c2ccccc2)c2ccccc2NC1=O)c1cc(F)cc2c1OCOC2 [Example 77b, (S)-6-Fluoro-4H-benzo[1,3]dioxine-8-carboxylic acid (2-oxo-5-phenyl-2,3-dihydro-1H-benzo[e][1,4]diazepin-3-yl)-amide]	33.2	–	–	–	IC50 (RSV [1]; [3]): 0.5 µM
COc1cc(C(F)(F)F)ccc1C(=O)N[C@H]1N=C(c2ccccc2)c2ccccc2NC1=O [Example 78, (S)-2-Methoxy-N-(2-oxo-5-phenyl-2,3-dihydro-1H-benzo[e][1,4]diazepin-3-yl)-4-trifluoromethyl-benzamide]	32.5	–	–	–	IC50 (RSV [1]; [3]): 2.7 µM
O=C(NC1N=C(c2ccccc2)c2ccccc2NC1=O)c1cc(F)c(F)cc1F (stereo not drawn) [Example 79a, 2,4,5-Trifluoro-N-(2-oxo-5-phenyl-2,3-dihydro-1H-benzo[e][1,4]diazopin-3-yl)-benzamide]	65	–	–	–	IC50 (RSV [1]): 8 µM
O=C(N[C@H]1N=C(c2ccccc2)c2ccccc2NC1=O)c1cc(F)c(F)cc1F [Example 79b, (S)-2,4,5-Trifluoro-N-(2-oxo-5-phenyl-2,3-dihydro-1H-benzo[e][1,4]diazepin-3-yl)-benzamide]	>50	–	–	–	IC50 (RSV [1]; [3]): 5.8 µM
O=C(NC1N=C(c2ccccc2)c2ccccc2NC1=O)c1ccccc1O (stereo not drawn) [Example 80a, 2-Hydroxy-N-(2-oxo-5-phenyl-2,3-dihydro-1H-benzo[e][1,4]diazepin-3-yl)-benzamide]	33	–	–	–	IC50 (RSV [1]; [3]): 8.7 µM
O=C(NC1N=C(c2ccccc2)c2ccccc2NC1=O)OCc1ccccc1 (stereo not drawn) [Example 114, (2-Oxo-5-phenyl-2,3-dihydro-1H-benzo[e][1,4]diazepin-3-yl)-carbamic acid benzyl ester]	–	5 µM	>100	60	–
Cc1cc(C)cc(NC(=O)NC2N=C(c3ccccc3)c3ccccc3NC2=O)c1 (stereo not drawn) [Example 115, 1-(3,5-Dimethyl-phenyl)-3-(2-oxo-5-phenyl-2,3-dihydro-1H-benzo[e][1,4]diazepin-3-yl)-urea]	–	1.5 µM	>100	60	–
O=C(Nc1ccc(OC(F)(F)F)cc1)NC1N=C(c2ccccc2)c2ccccc2NC1=O (stereo not drawn) [Example 116, 1-(2-Oxo-5-phenyl-2,3-dihydro-1H-benzo[e][1,4]diazepin-3-yl)-3-(4-trifluoromethoxy-phenyl)-urea]	–	2 µM	20	20	–
O=C(Nc1ccc(Br)cc1C(F)(F)F)NC1N=C(c2ccccc2)c2ccccc2NC1=O (stereo not drawn) [Example 117, 1-(4-Bromo-2-trifluoromethyl-phenyl)-3-(2-oxo-5-phenyl-2,3-dihydro-1H-benzo[e][1,4]diazepin-3-yl)-urea]	–	6 µM	60	100	–
O=C(NCc1ccc(Br)cc1)NC1N=C(c2ccccc2)c2ccccc2NC1=O (stereo not drawn) [Example 118, 1-(4-Bromo-benzyl)-3-(2-oxo-5-phenyl-2,3-dihydro-1H-benzo[e][1,4]diazepin-3-yl)-urea]	–	2 µM	>100	100	–
O=C(Nc1cccc(Cl)c1Cl)NC1N=C(c2ccccc2)c2ccccc2NC1=O (stereo not drawn) [Example 119, 1-(2,3-Dichloro-phenyl)-3-(2-oxo-5-phenyl-2,3-dihydro-1H-benzo[e][1,4]diazepin-3-yl)-urea]	–	2 µM	>100	30	–
Cc1cccc(C)c1NC(=O)NC1N=C(c2ccccc2)c2ccccc2NC1=O (stereo not drawn) [Example 120, 1-(2,6-Dimethyl-phenyl)-3-(2-oxo-5-phenyl-2,3-dihydro-1H-benzo[e][1,4]diazepin-3-yl)-urea]	–	6 µM	>100	60	–
O=C(Nc1ccc([N+](=O)[O-])cc1)NC1N=C(c2ccccc2)c2ccccc2NC1=O (stereo not drawn) [Example 122, 1-(4-Nitro-phenyl)-3-(2-oxo-5-phenyl-2,3-dihydro-1H-benzo[e][1,4]diazepin-3-yl)-urea]	–	0.4 µM	60	20	–
CSc1ccccc1NC(=O)NC1N=C(c2ccccc2)c2ccccc2NC1=O (stereo not drawn) [Example 123, 1-(2-Methylsulfanyl-phenyl)-3-(2-oxo-5-phenyl-2,3-dihydro-1H-benzo[e][1,4]diazepin-3-yl)-urea]	–	2 µM	>100	100	–
O=C(Nc1c(Cl)cccc1Cl)NC1N=C(c2ccccc2)c2ccccc2NC1=O (stereo not drawn) [Example 124, 1-(2,6-Dichloro-phenyl)-3-(2-oxo-5-phenyl-2,3-dihydro-1H-benzo[e][1,4]diazepin-3-yl)-urea]	–	5 µM	70	60	–
N-[5-(3-Chloro-phenyl)-2-oxo-5-phenyl-2,3-dihydro-1H-benzo[e][1,4]diazepin-3-yl]-2-nitro-benzamide [Example 101]	–	–	100	100	IC50 (RSV [2]; [5]): 2.5 µM
N-[5-(3-Chloro-phenyl)-2-oxo-5-phenyl-2,3-dihydro-1H-benzo[e][1,4]diazepin-3-yl]-4-methoxy-benzamide [Example 100]	–	–	>100	100	IC50 (RSV [2]; [5]): 4 µM
N-[5-(3-Chloro-phenyl)-2-oxo-5-phenyl-2,3-dihydro-1H-benzo[e][1,4]diazepin-3-yl]-4-nitro-benzamide [Example 102]	–	–	>100	>100	IC50 (RSV [2]; [5]): 7 µM
N-[5-(3-Methoxy-phenyl)-2-oxo-5-phenyl-2,3-dihydro-1H-benzo[e][1,4]diazepin-3-yl]nitro-benzamide [Example 110]	–	–	>100	>100	IC50 (RSV [2]; [5]): 5 µM
